Data taken from PMC7143261 (Foods, 2020).

How the values were obtained:
[1] = Plasmatic serotonin after treatment (ELISA); type: in vivo, Sprague Dawley rats; conditions: 90 min after oral 50 µg melatonin/kg
[2] = cited from earlier work
[3] = Plasmatic antioxidant capacity by FRAP after treatment; type: in vivo, Sprague Dawley rats; conditions: 90 min after oral 50 µg melatonin/kg
Description: (§1) Phytochemicals and metabolites were isolated using SPE.
The plasma samples were also used to assess the reducing antioxidant potential using the FRAP assay, as previously described. Briefly, 300 μL of a working FRAP reagent [acetate buffer 0.3 M pH 3.6, 10 mM TPTZ in 40 mM HCl and 20 mM FeCl3·6H2O (10:1:1) (v/v/v)] were tempered to 37 °C, and then 10 μL of plasma samples were added. The absorbance was taken at 593 nm against reagent blank after 10 min. FRAP values were calculated and reported as µM Trolox equivalents (µM TE).

[4] = Pharmacokinetic study of plasma melatonin after single oral dose of lentil sprouts extract
Description: (§2) The area under the curve (AUC) is the integral of the plasma concentration of an altered drug against an interval of definite time. Pharmacokinetic parameters including plasma elimination rate constant (Ke), elimination half-life (t1/2), time to reach measured maximum plasma concentration (Tmax), measured maximum plasma concentration (Cmax), area under the plasma concentration-time curve from the time zero to the time of last quantifiable concentration (AUC0–t), area under the plasma concentration-time curve from time zero to infinity (AUC0–∞), area under the plasma (first) moment concentration-time curve from time zero to infinity (AUMC0–∞), mean residence time (MRT), volume of distribution (VD/F), and clearance (Cl/F) were determined by noncompartmental methods.

[5] = Bioavailability study: plasmatic melatonin 90 min after treatment (ELISA); conditions: 90 min after oral 50 µg synthetic melatonin/kg
Description: Each of the four groups (10 rats) was administered the treatment and sacrificed on a different day. […] The administration was performed through a gavage using a suitable intubation cannula. After that, the rats were individually caged, and a cling film was placed below the cage to obtain the urine samples. After 90 min of extract administration, all rat groups were anesthetized by CO2. Urine was collected from the cling film with a pipette and transferred to a vial. […] The blood was collected by cardiac puncture, transferred to vials containing 5% heparin, and centrifuged at 4 °C for 15 min at 2100 g. […] Phytochemicals and metabolites were isolated using SPE. First, plasma and urine samples were centrifuged at 15000 g for 4 min at 4 °C. Then, samples were filtered using C18 SPE cartridges (Waters, Cerdanyola del Vallès, Spain). Finally, the eluted obtained fractions were evaporated to dryness (Speed Vac SC 200, Savant Instruments, Farmingdale, NY, USA) and reconstituted before being assayed.

[6] = Plasmatic antioxidant capacity by ORAC after treatment; type: in vivo, Sprague Dawley rats; conditions: 90 min after oral 50 µg synthetic melatonin/kg
Description: as §1
The above plasma samples were used to determine the radical scavenging activity via the ORAC method using fluorescein as a fluorescence probe. The assay was performed at 37 °C in 75 mM phosphate buffer (pH 7.4). The reaction mixture (200 μL) contained fluorescein (70 nM), 2,2-azobis (2-methyl-propionamidine)-dihydrochloride (12 mM), and samples (Trolox or samples). Fluorescence was read at 485/520 nm, excitation/emission, respectively. Black 96-well untreated microplates (PS Balck, Porvair, Leatherhead, UK) were used. The fluorescence signal was measured every minute for 80 min after automatic shaking. All reaction mixtures were prepared in triplicate, running them at least three times independently. Fluorescence was normalized to the oxidation control (phosphate buffer) and stability control (no antioxidant). The ORAC values were expressed as mM Trolox equivalents (mM TE) according to the protocol previously described.

in vivo = conditions: Sprague Dawley, rat, plasma, po, 50 ug/kg
Description: as §2

[7] = Plasma total phenolic compounds (Folin-Ciocalteu) after treatment; type: in vivo, Sprague Dawley rats; conditions: 90 min posttreatment, 50 µg melatonin/kg
Description: as §1
Samples (10 μL) were added to 150 μL of Folin-Ciocalteu reagent (diluted 1:15, v/v in Milli-Q water). After exactly 3 min, 20% Na2CO3 (50 μL) was added to each well. After 120 min at room temperature, the absorbance of the blue complex was measured at 760 nm using a microplate reader. The concentration of total phenolic compounds was expressed as mg GAE/mL.

[8] = Sprague Dawley, rat, plasma, po, 50 ug/kg
[9] = oral lentil sprouts, 50 µg melatonin/kg

COc1ccc2[nH]cc(CCNC(C)=O)c2c1 [melatonin, N-acetyl-5-methoxytryptamine]
enhancement of plasmatic serotonin concentration in contrast to the Fasting group [1]: 2.7 fold
time of absorption in the gastrointestinal tract post-oral administration [2]: 45 min
increase of plasmatic antioxidant capacity (FRAP) [3]: 4%
half-life ([4]; Sprague Dawley, rat, in vivo, po, 50 ug/kg): 1.82 ± 0.217 h
CL/F [4, 8]: 330 L/h/kg
half-life [4, 8]: ~1.67 h
k el [4, 8]: 0.000108 s⁻¹
MRT inf ([4]; Sprague Dawley, rat, plasma, po, 50 ug/kg, MRT 0-∞, oral lentil sprouts, 50 µg melatonin/kg): ~3.33 h
time of maximum plasma melatonin concentration postadministration ([4]; oral lentil sprouts extract, 50 µg melatonin/kg): 1.5 h
AUC 0-t /dose [4, 9]: 131.2 ± 19.3 (pg/mL min)/(μg/kg)
AUC 0-∞ [4, 9]: 9381 ± 2008 pg·min/mL
AUMC 0-∞ [4, 9]: 1897356 ± 589030 pg/mL min^2
Cl/F [4, 9]: 0.33 ± 0.07 (μg/kg)/(pg/mL)/h
MRT 0-∞ [4, 9]: 3.323 ± 0.33 h
VD/F [4, 9]: 0.85 ± 0.08 (μg/kg)/(pg/mL)
volume of distribution (VD/F) [4, 9]: 0.85 L/g
AUC 0-t ([4]; oral lentil sprouts, 50 µg melatonin/kg, 0-240 min): 6560 ± 963 pg·min/mL
plasmatic melatonin concentration lower than that of the Lentil Sprouts group [5]: 22%
increment of plasmatic antioxidant capacity (ORAC) vs the fasting group [6]: 32%
Cmax (in vivo): 0.0454 ± 0.0035 ng/mL
Tmax (in vivo): 1.5 h
change of TPC concentration in plasma [7]: nonsignificant
